This note sets out measurements from patent US9884043B2, “RORgammaT inhibitors” (Merck Sharp & Dohme Corp., priority 2011, dated 2018).

The target in the assay is T1, 6His(GST)RORgamma-LBD (Homo sapiens, UniProt P51449).
T1 construct: the applied RORgamma-LBD contains a 6-His and GST tag; GST (N); made in house; host or cells: baculovirus-infected Sf-21 insect cells
T1 sequence (P51449 269-508 limits assumed): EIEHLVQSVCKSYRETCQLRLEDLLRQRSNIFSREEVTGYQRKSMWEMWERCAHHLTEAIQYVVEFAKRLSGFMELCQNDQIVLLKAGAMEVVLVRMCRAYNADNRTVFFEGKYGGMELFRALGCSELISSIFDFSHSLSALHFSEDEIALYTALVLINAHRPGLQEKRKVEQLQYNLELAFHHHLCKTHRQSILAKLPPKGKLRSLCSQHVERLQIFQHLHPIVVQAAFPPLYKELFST
Description: TR-FRET assay (Protocol A), RORgamma-LBD / SRC1_2 co-activator peptide interaction. The note with it: SRC1_2 peptide 0.1 μM, RORgamma-LBD 10 nM, overnight incubation at 4° C. Format: biochemical. An excerpt:
Activation of RORgammaT activity can be measured using e.g. biochemical TR-FRET assay. In such an assay, interaction of cofactor-derived peptides with human RORgammaT-Ligand Binding Domain (LBD) can be measured.
To identify novel antagonists of RORgammaT, an assay was developed which employs the interaction of RORgammaT with its co-activator peptide SRC1_2. […] The assay was run following three slightly different protocols, i.e. Protocol A, Protocol B, and Protocol C, which are described below.
TR-FRET Assay (Protocol A)
The 6His(GST)RORgamma-LBD was expressed and purified from baculovirus infected Sf-21 insect cells (Bac-to-BAC, Invitrogen) and purified using glutathione sepharose chromatography (GE healthcare). Biotin and His function as anchoring points for streptavidin-allophycocyanin (Strep-APC, Perkin Elmer, C130-100) and anti-His-Europium Cryptate (Perkin Elmer, AD0111), respectively. Since energy transfer between the streptavidin and His-coupled labels APC and europium cryptate can only take place when these labels are in close proximity, measurement of energy transfer in a mixture of biotinylated peptide, His-GR-LBD, streptavidin-APC and anti-His-Europium Cryptate will be indicative for RORy-LBD/peptide binding. […] Changes in peptide binding caused by dose-curves of compounds added to the reaction mixture (DMSO concentration 0.1%), can likewise be monitored.
For orientation: TR-FRET usually uses a lanthanide donor and a delayed reading to cut background.
A word on the EC50: it is the concentration giving half of the maximal effect. Read a high EC50 as a less potent agent. Compound `O=S(=O)(c1ccc(F)cc1Br)n1nc(-c2ccc(-c3nnn[nH]3)cc2)c2ccccc21` [Example 21B, 3-(4-(1H-tetrazol-5-yl)phenyl)-1-(2-bromo-4-fluorophenylsulfonyl)-1H-indazole] gave an EC50 of 575 nM.

`O=C(O)c1ccc(-c2nn(C(=O)c3c(Cl)cccc3Br)c3ccccc23)cc1` [Example 11E, 4-(1-(2-bromo-6-chlorobenzoyl)-1H-indazol-3-yl)benzoic acid] showed an EC50 of 26.9 nM. This EC50 is about 21-fold lower than that of the compound before. For the compound `O=C(O)c1ccc(-c2nn(S(=O)(=O)c3cc(Cl)ccc3Cl)c3ccccc23)cc1` [Example 13C, 4-(1-(2,5-dichlorophenylsulfonyl)-1H-indazol-3-yl)benzoic acid], the concentration for a half-maximal effect (EC50) is 75.9 nM. Still for that read-out and setting: with `O=C(O)c1ccc(-c2nn(C(=O)c3c(Cl)cccc3Cl)c3ccccc23)cc1` [Example 1, 4-(1-(2,6-dichlorobenzoyl)-1H-indazol-3-yl)benzoic acid] the figure was 10.7 nM; with `O=C(O)c1ccc(-c2nn(C(=O)c3c(Cl)cccc3Cl)c3cccc(F)c23)cc1` [Example 4, 4-(1-(2,6-dichlorobenzoyl)-4-fluoro-1H-indazol-3-yl)benzoic acid], 8.32 nM; with `COC(=O)c1sccc1S(=O)(=O)n1nc(-c2ccc(-c3nnn[nH]3)cc2)c2ccccc21` [Example 21A, methyl 3-(3-(4-(1H-tetrazol-5-yl)phenyl)-1H-indazol-1-ylsulfonyl)thiophene-2-carboxylate], 389 nM. Regarding `O=C(O)c1ccc(-c2nn(S(=O)(=O)c3ccccc3Br)c3ccccc23)cc1` [Example 13B, 4-(1-(2-bromophenylsulfonyl)-1H-indazol-3-yl)benzoic acid], the response was half-maximal at 79.4 nM (EC50).

Compound `O=C(O)c1ccc(-c2nn(S(=O)(=O)c3cccc4cccnc34)c3ccccc23)cc1` [Example 13A, 4-(1-(quinolin-8-ylsulfonyl)-1H-indazol-3-yl)benzoic acid] gave an EC50 of 155 nM.

`O=C(O)c1ccc(-c2nn(S(=O)(=O)c3ccccc3Cl)c3ccncc23)cc1` [Example 16, 4-(1-(2-chlorophenylsulfonyl)-1H-pyrazolo[4,3-c]pyridin-3-yl)benzoic acid] had an EC50 of 955 nM. On the same count and under the same terms, the result for `CCOc1ccccc1C(=O)n1nc(-c2ccc(C(=O)O)cc2)c2ccccc21` [Example 11J, 4-(1-(2-ethoxybenzoyl)-1H-indazol-3-yl)benzoic acid] reads 1910 nM. `Cc1cccc([N+](=O)[O-])c1C(=O)n1nc(-c2ccc(C(=O)O)cc2)c2ccccc21` [Example 11N, 4-(1-(2-methyl-6-nitrobenzoyl)-1H-indazol-3-yl)benzoic acid] showed an EC50 of 25.7 nM.

In the case of `O=C(O)c1ccc(-c2nn(S(=O)(=O)c3cccc4ccccc34)c3ccccc23)cc1` [Example 15B, 4-(1-(naphthalen-1-ylsulfonyl)-1H-indazol-3-yl)benzoic acid], the EC50 was 182 nM.

A word on the pEC50: it is the negative decadic logarithm of the EC50, by convention in mol/L. A lower pEC50 goes with a large EC50. For the compound `O=C(O)c1ccc(-c2nn(S(=O)(=O)c3ccccc3C(F)(F)F)c3ccccc23)cc1` [Example 12, 4-(1-(2-(trifluoromethyl)phenylsulfonyl)-1H-indazol-3-yl)benzoic acid], the pEC50 was 7.17. Compound `O=C(O)c1ccc(-c2nn(C(=O)c3c(F)cccc3C(F)(F)F)c3ccccc23)cc1` [Example 11F, 4-(1-(2-fluoro-6-(trifluoromethyl)benzoyl)-1H-indazol-3-yl)benzoic acid] gave an EC50 of 39.8 nM. On the same count and under the same terms, the result for `O=C(O)c1ccc(-c2nn(S(=O)(=O)c3cccc4nonc34)c3ccccc23)cc1` [Example 15D, 4-(1-(benzo[c][1,2,5]oxadiazol-4-ylsulfonyl)-1H-indazol-3-yl)benzoic acid] reads 4470 nM; that for `Cc1cccc(C)c1C(=O)n1nc(-c2ccc(C(=O)O)cc2)c2ccccc21` [Example 11I, 4-(1-(2,6-dimethylbenzoyl)-1H-indazol-3-yl)benzoic acid], 72.4 nM. `Cc1c(Cl)cccc1S(=O)(=O)n1nc(-c2ccc(C(=O)O)cc2)c2ccccc21` [Example 13D, 4-(1-(3-chloro-2-methylphenylsulfonyl)-1H-indazol-3-yl)benzoic acid] showed an EC50 of 52.5 nM.
